Source: patent US20240024446A1 (priority 2020, published 2024)
Where “and” joins values, the source holds several entries; their conditions need not be identical. Equal values may be shown once.

Legend:
C6 cells [1] = format: cell-based, rats
C6 cells [2] = experiment: In vitro potency test/neutralization assay with fish sera on C6 cells; format: cell-based, rats
Procedure: In line with Example 7, an in vitro potency test/neutralization assay was performed with the sera raised as described in Example 8. For this, C6 cells were seeded at 2.0*10^4 cells/ml, 100 μl per well, and grown at 37° C., 5% CO2 for 3 days. Cells were incubated for 48 h, with a combination of 20 μg/ml AFB1 and 32× diluted serum derived from fish vaccinated with AFB1-KLH in GNE or vaccinated with a placebo. Percentages of live cells were determined by microscopical evaluation.

[3] = format: in vivo; details: pig plasma; DON bolus 0.05 mg/kg at 11 weeks of age; DON-KLH = pigs immunised IM at 3 and 6 weeks, DON = control pigs
Procedure: Ten 3 week old pigs were used in the study, divided over 2 groups of 5 pigs each. The pigs in Group 1 were immunised IM twice at 3 and 6 weeks of age with DON-KLH (Test Article 1; example1). Group 2 served as a control and only received a control fluid. At the age of 11 weeks the animals were each administered DON (Fermentek, Israel) via a bolus at a dose of 0.05 mg/kg which (based on the daily feed intake) resembled a contamination level of 1 mg/kg feed. Blood samples of the pigs were taken juts before DON administration and 0.25, 0.5, 0.75, 1, 1.5, 2, 3, 4, 6, 8, and 12 h post DON administration.
Plasma analysis of unbound DON was done using a validated LC-MS/MS method on an Acquity® UPLC system coupled to a Xevo® TQ-S MS instrument (Waters, Zellik, Belgium). The lower limit of quantification of DON in pig plasma using this method is 0.1 ng/ml.
Toxicokinetic modeling of the plasma concentration-time profiles of DON was done by noncompartmental analysis (Phoenix, Pharsight Corporation, USA). Following parameters were calculated: area under the curve from time zero to infinite (AUC0→∞), maximal plasma concentration (Cmax), and time at maximal plasma concentration (tmax).

Compound | concentration from which toxic on C6 cells (dose response curve) (C6 cells [1]) [ng/mL] | Percentage live cells after incubation with AFB1 and diluted fish serum (C6 cells [2]) | AUC0→∞ of unbound DON [3] | Cmax of unbound DON [3]
COc1cc2c(c3oc(=O)c4c(c13)CCC4=O)[C@@H]1C=CO[C@@H]1O2 [AFB1, Aflatoxin B1] | ≥ 20000 | 95% and 65% | – | –
CC1=C[C@H]2O[C@@H]3[C@H](O)C[C@](C)([C@@]2(CO)[C@H](O)C1=O)[C@]31CO1 [DON, deoxynivalenol] | – | – | 187 ± 33 | 30.8 ± 2.5
